Measured values published in patent US7786152B2, “Compound” (priority 2002, dated 2010).

These compounds were tested against T1, 11 β-HSD type 2 (Rattus norvegicus, UniProt P50233) (assay: 11 β-HSD type 2 inhibition, rat kidney homogenate, conversion F to E (radiometric TLC)). Conditions: read-out: % inhibition of 11β HSD2 @ 10 μM, typical sd ± 5%, means n=2.
T1 construct: Both the kidneys and livers were homogenised on ice in PBS-sucrose buffer; tissue Harlan Olac (rats); host or cells: Wistar rat kidney homogenate supernatant
T1 sequence (P50233 1-400): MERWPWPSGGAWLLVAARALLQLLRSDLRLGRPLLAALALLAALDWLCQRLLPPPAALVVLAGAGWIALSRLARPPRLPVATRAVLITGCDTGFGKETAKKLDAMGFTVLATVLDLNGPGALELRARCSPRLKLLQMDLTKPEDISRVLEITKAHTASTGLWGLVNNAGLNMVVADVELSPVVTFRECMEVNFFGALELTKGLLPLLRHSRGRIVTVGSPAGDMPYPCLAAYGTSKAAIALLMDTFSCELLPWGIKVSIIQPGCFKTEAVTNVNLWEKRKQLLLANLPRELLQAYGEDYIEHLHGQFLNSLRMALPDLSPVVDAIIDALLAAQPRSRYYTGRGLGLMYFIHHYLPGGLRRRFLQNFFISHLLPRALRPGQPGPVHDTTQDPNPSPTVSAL
Type: biochemical
Description: Enzymes—Rat livers and rat kidneys were obtained from normal Wistar rats (Harlan Olac, Bicester, Oxon, UK). Both the kidneys and livers were homogenised on ice in PBS-sucrose buffer (1 g/10 ml) using an Ultra-Turrax. After the livers and kidneys were homogenised the homogenate was centrifuged for five minutes at 4000 rpm. The supernatant obtained was removed and stored in glass vials at −20° C. The amount of protein per μl of rat liver and kidney cytosol was determined using the Bradford method.
The same procedure was used for the 11 β-HSD type 2 assay, the conversion F to E, to determine the amount of rat kidney to be used and the incubation time. Except this time the substrate solution contained ^3H—F and unlabelled F and the recovery contained ^14C-E and unlabelled E and cortisone has a Rf value of 0.65 on the TLC-plate.
In these assays the influence of different inhibitors on the 11 β-HSD activity both in reductive (type 1) and oxidative (type 2) directions were assessed. In the reductive direction E is the substrate and F the product and visa versa in the case of oxidation. The method described here is for the oxidative direction.
The substrate solution contained about 50,000 cpm/ml ^3H—F in PBS-sucrose and 0.5 μM F. 1 ml of the substrate solution was added to each tube, the inhibitors were also added, at a 10 μM concentration, to each tube except to the “control” and “blank” tubes. 150 μL was added to all tubes except to the blanks, this was done to correct for the amount of ^3H—F spontaneously formed. The tubes were incubated for 60 minutes in a mechanically shaken water bath at 37° C. The amount of kidney liver homogenate and incubation time used resulted from the enzyme- and time-dependency assay. After incubation 50 μL of recovery was added to correct for the losses made in the next steps, containing 5000 cpm/50 μL of ^14C-E and 50 μg/50 μL of unlabelled E (to visualise the spot on the TLC-plate). The aqueous mixture was then extracted with 4 ml of ether (2×30 sec cycle, vortex mix). After freezing the aqueous phase, the ether (upper) layer was decanted into smaller tubes and evaporated at 45° C. until completely dry. The residue was then re-dissolved in 6 drops of ether and transferred to a TLC-plate. The TLC-plate was developed in chloroform:methanol (9:1 v/v) solvent system, the TLC-plate ran for about 90 minutes until the solvent front had moved about 18 cm. The position of the product E was visualised under UV-light and cut out from the TLC-plate and put into scintillation vials. Radioactivity was eluted over 5 minutes with 0.5 ml methanol. 0.5 ml of PBS-sucrose and 10 ml of Ecoscint were then added and vortex mixed before counting in the scintillation counter. Before counting the samples, two total activity vials were prepared. These contained 0.5 ml of the substrate solution, 50 μL of the recovery, 0.5 ml of methanol and 10 ml of Ecoscint. These two total activity vials were needed to determine the amount of ^14C-E and ^3H—F added in the beginning to make the calculations.
To look at the percentage of inhibition four different concentrations, 1, 5, 10 and 20 μM, were used. The method for both the rat liver, type 1 the reductive, and rat kidney, type 2 the oxidative, stay the same throughout the entire experiment.
In this experiment the amount of rat liver homogenate and rat kidney homogenate added to each tube and the incubation time was determined. […] After drawing the graphs the optimal amount of rat liver cytosol and rat kidney cytosol and both their incubation times were selected. One important rule when selecting both variables, to select an amount of rat liver and rat kidney and incubation time on a linear part of the graph. This is done to avoid fluctuations in enzyme activity. The amount of rat liver cytosol selected was 25 μL and 90 minutes of incubation time, the amount of rat kidney cytosol selected was 150 μL and 60 minutes of incubation time. […]

Compared with `Cc1nc2cc(NS(=O)(=O)c3c(Cl)cc(Cl)cc3Cl)ccc2s1` [compound 522], `Cc1nc2cc(NS(=O)(=O)c3ccc(Cl)cc3Cl)ccc2s1` [compound 412] is lower in inhibition at 10 µM: 6% for the first, 3% for the second.

Going from `Cc1nc2cc(NS(=O)(=O)c3cccc4ccccc34)ccc2s1` [compound 553] to `Cc1nc2cc(NS(=O)(=O)c3cccc4cccnc34)ccc2s1` [compound 552], the inhibition at 10 µM rises from 18% to 24%.

Compared with `Cc1nc2cc(NS(=O)(=O)c3ccc(Br)cc3)ccc2s1` [compound 519], `COc1ccc(S(=O)(=O)Nc2ccc3sc(C)nc3c2)cc1` [compound 424] is lower in inhibition at 10 µM: 8% for the first, 0.7% for the second.

First: Cc1nc2cc(NS(=O)(=O)c3ccc(Br)cc3C)ccc2s1 [compound 523]
Second: COc1cc(C)ccc1S(=O)(=O)Nc1ccc2sc(C)nc2c1 [compound 584]
The inhibition at 10 µM of the first is lower: 8% for the first, 10% for the second.

Compared with `Cc1nc2cc(N(C)S(=O)(=O)c3cccc(Cl)c3C)ccc2s1` [compound 469], `CCN(c1ccc2sc(C)nc2c1)S(=O)(=O)c1cccc(Cl)c1C` [compound 470] is higher in inhibition at 10 µM: 29% for the first, 30% for the second.

Going from `COC(=O)c1ccccc1S(=O)(=O)Nc1ccc2sc(C)nc2c1` [compound 705] to `CC(=O)c1ccccc1S(=O)(=O)Nc1ccc2sc(C)nc2c1` [compound 701], the inhibition at 10 µM rises from 6% to 36%.

First: CCCc1ccc(S(=O)(=O)Nc2ccc3sc(C)nc3c2)cc1 [compound 421]
Second: Cc1nc2cc(NS(=O)(=O)c3ccc(C(C)C)cc3)ccc2s1 [compound 704]
The inhibition at 10 µM of the first is lower: 0.9% for the first, 4% for the second.

First: Cc1nc2cc(NS(=O)(=O)c3cccc(Cl)c3C)ccc2s1 [compound 413]
Second: Cc1nc2cc(NS(=O)(=O)c3c(C)cccc3Cl)ccc2s1 [compound 425]
The inhibition at 10 µM of the first is higher: 0.2% for the first, 0% for the second.

Going from `Cc1nc2cc(NS(=O)(=O)c3c(C)c(C)c(C)c(C)c3C)ccc2s1` [compound 710] to `COc1c(C)c(C)c(S(=O)(=O)Nc2ccc3sc(C)nc3c2)c(C)c1C` [compound 708], the inhibition at 10 µM rises from 10% to 11%.

Going from `Cc1nc2cc(NS(=O)(=O)c3ccc(Oc4ccccc4)cc3)ccc2s1` [compound 585] to `Cc1nc2cc(NS(=O)(=O)c3ccc(-c4ccccc4)cc3)ccc2s1` [compound 521], the inhibition at 10 µM rises from 1.6% to 5%.

First: Cc1nc2cc(NS(=O)(=O)c3c(C(C)C)cc(C(C)C)cc3C(C)C)ccc2s1 [compound 703]
Second: Cc1nc2cc(NS(=O)(=O)c3ccc(C(C)(C)C)cc3)ccc2s1 [compound 709]
The inhibition at 10 µM of the first is lower: 4% for the first, 13% for the second.

Compared with `Cc1nc2cc(NS(=O)(=O)c3cccc4c(N(C)C)cccc34)ccc2s1` [compound 554], `Cc1nc2cc(NS(=O)(=O)c3ccccc3C#N)ccc2s1` [compound 583] is lower in inhibition at 10 µM: 43% for the first, 0.4% for the second.

Going from `COc1ccc(Cl)cc1S(=O)(=O)Nc1ccc2sc(C)nc2c1` [compound 582] to `Cc1nc2cc(NS(=O)(=O)c3cc(Cl)ccc3Cl)ccc2s1` [compound 580], the inhibition at 10 µM rises from 0.7% to 1.4%.

Compared with `CCSc1nc2ccc(NS(=O)(=O)c3cccc(Cl)c3C)cc2s1` [compound 751], `Cc1nc2cc(NS(=O)(=O)c3ccc4c(c3)CN(C(=O)C(F)(F)F)CC4)ccc2s1` [compound 581] is higher in inhibition at 10 µM: 5% for the first, 32% for the second.
